In patent US12180226B2, “Spirotricycle RIPK1 inhibitors and methods of uses thereof” (Merck Sharp & Dohme LLC, priority 2021, dated 2024):

Target: RIPK1 (recombinant GST-RIPK1 kinase domain, residues 1-327) (Homo sapiens (Human), UniProt Q13546)
Assay: RIPK1-ADP-Glo Enzymatic Assay
Assay type: biochemical
Conditions: ADP-Glo; 25 nM GST-RIPK1, 300 μM ATP; assay lower limit ~25 nM; read-out: RIPK1 V0 Ec50
Outline: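 Enzyme from baculovirus-infected Sf21 cells, 25 nM final, was pre-incubated 30 min at ambient temperature with compound (ten-point, 1:3 dilution from 100000 nM, 1% DMSO), then reacted 150 min with 300 μM ATP and 3 μM dephosphorylated MBP. ADP was read by luminescence; EC50 from four-parameter fit.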

RIPK1 (recombinant GST-RIPK1 kinase domain, residues 1-327), sequence (Q13546 1-327): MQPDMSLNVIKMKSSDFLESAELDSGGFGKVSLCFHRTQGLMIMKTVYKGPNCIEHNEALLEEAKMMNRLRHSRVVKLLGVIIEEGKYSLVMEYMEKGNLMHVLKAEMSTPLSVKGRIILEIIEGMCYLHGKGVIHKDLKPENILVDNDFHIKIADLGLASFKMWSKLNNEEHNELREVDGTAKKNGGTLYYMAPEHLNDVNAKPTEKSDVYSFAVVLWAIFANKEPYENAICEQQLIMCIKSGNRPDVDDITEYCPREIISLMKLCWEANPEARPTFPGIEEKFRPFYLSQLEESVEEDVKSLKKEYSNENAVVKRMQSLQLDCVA

Question: Which EC50 does the source give for `COc1cc(N2CCC3(CC2)O[C@@H]2CC[C@@H](c4cccc(F)c4)N2C3=O)ncn1` [Example 4.51, (5′S,7a′R)-5′-(3-fluorophenyl)-1-(6-methoxypyrimidin-4-yl)tetrahydro-3′H-spiro[piperidine-4,2′-pyrrolo[2,1-b] [1,3]oxazol]-3′-one] here?
Answer: 41.2 nM

Question: For `O=C1N2[C@@H](CC[C@H]2c2ccccc2)OC12CCN(c1ncnn3c(F)cnc13)CC2` [Example 4.226, (5′S,7a′R)-1-(7-fluoroimidazo[2,1-f] [1,2,4]triazin-4-yl)-5′-phenyltetrahydro-3′H-spiro[piperidine-4,2′-pyrrolo[2,1-b] [1,3]oxazol]-3′-one], which EC50 is on record?
Answer: < 25 nM

Question: With `O=C1N2[C@@H](CC[C@H]2c2ccccc2)OC12CCN(c1nccc(-c3ccccn3)n1)CC2` [Example 11.11, (5′S,7a′R)-5′-phenyl-1-[4-(pyridin-2-yl)pyrimidin-2-yl]tetrahydro-3′H-spiro[piperidine-4,2′-pyrrolo[2,1-b][1,3]oxazol]-3′-one] as the compound, how does the EC50 read?
Answer: 42 nM

Question: Which EC50 does the source give for `O=C(c1cocn1)N1CCC2(CC1)O[C@@H]1CC[C@@H](c3cc(F)cc(F)c3)N1C2=O` [Example 5.30, (5′S,7a′R)-5′-(3,5-difluoro-phenyl)-1-(1-oxazole-4-carbonyl)tetrahydro-3′H-spiro[piperidine-4,2′-pyrrolo[2,1-b]oxazol]-3′-one] here?
Answer: 28.4 nM

Question: Which EC50 does the source give for `CCOC(=O)c1cc(N2CCC3(CC2)O[C@@H]2CC[C@@H](c4ccccc4)N2C3=O)ncn1` [Example 4.23, ethyl 6-[(5′S,7a′R)-3′-oxo-5′-phenyltetrahydro-1H,3′H-spiro[piperidine-4,2′-pyrrolo[2,1-b] [1,3]oxazol]-1-yl]pyrimidine-4-carboxylate] here?
Answer: 52.8 nM

Question: `O=C1N2[C@@H](CC[C@H]2c2ccccc2)OC12CCN(c1ccnc(C3CC3)n1)CC2` [Example 11.15, (5′S,7a′R)-1-(2-cyclopropylpyrimidin-4-yl)-5′-phenyltetrahydro-3′H-spiro[piperidine-4,2′-pyrrolo[2,1-b][1,3]oxazol]-3′-one] was tested. Which EC50 did it give?
Answer: 81.7 nM

Question: `COc1cc(-n2ccc(N3CCC4(CC3)O[C@@H]3CC[C@@H](c5ccccc5)N3C4=O)n2)ccn1` [Example 11.6, (5′S,7a′R)-1-[1-(2-methoxypyridin-4-yl)-1H-pyrazol-3-yl]-5′-phenyltetrahydro-3′H-spiro[piperidine-4,2′-pyrrolo[2,1-b][1,3]oxazol]-3′-one] was tested. Which EC50 did it give?
Answer: 31.4 nM

Question: How did the EC50 turn out when `CC1CN(c2cccc3ncnn23)CCC12O[C@@H]1CC[C@@H](c3cc(F)cc(F)c3)N1C2=O` (stereo partly drawn) [Example 4.266, (5′S,7a′R)-5′-(3,5-difluorophenyl)-3-methyl-1-([1,2,4]triazolo[1,5-a]pyridin-5-yl)tetrahydro-3′H-spiro[piperidine-4,2′-pyrrolo[2,1-b] [1,3]oxazol]-3′-one] was run?
Answer: < 25 nM

Question: How did the EC50 turn out when `O=C1N2[C@@H](CC[C@H]2c2ccccc2)OC12CCN(c1ncc(Br)c3ncnn13)CC2` [Example 4.239, (5′S,7a′R)-1-(8-bromo [1,2,4]triazolo[1,5-c]pyrimidin-5-yl)-5′-phenyltetrahydro-3′H-spiro[piperidine-4,2′-pyrrolo[2,1-b] [1,3]oxazol]-3′-one] was run?
Answer: < 25 nM

Question: How did the EC50 turn out when `N#Cc1ccc(C(=O)N2CCC3(CC2)O[C@@H]2CC[C@@H](c4cc(F)cc(F)c4)N2C3=O)c(F)c1` [Example 5.20, 4-((5′S,7a′R)-5′-(3,5-difluorophenyl)-3′-oxo-tetrahydro-3′H-spiro [piperidine-4,2′-pyrrolo-[2,1-b]oxazole]-1-carbon-yl)-3-fluorobenzonitrile] was run?
Answer: 212 nM

Question: Which EC50 does the source give for `CC1(NC(=O)c2nc(N3CCC4(CC3)O[C@@H]3CC[C@@H](c5cc(F)cc(F)c5)N3C4=O)ncc2F)CC1` [Example 7.11, 2-[(5′S,7a′R)-5′-(3,5-difluorophenyl)-3′-oxotetrahydro-1H,3′H-spiro[piperidine-4,2′-pyrrolo[2,1-b][1,3]oxazol]-1-yl]-5-fluoro-N-(1-methyl-cyclopropyl)pyrimidine-4-carboxamide] here?
Answer: 92.2 nM

Question: For `Cc1ncc(C)c(N2CCC3(CC2)O[C@@H]2CC[C@@H](c4ccccc4)N2C3=O)n1` [Example 11.34, (5′S,7a′R)-1-(2,5-dimethylpyrimidin-4-yl)-5′-phenyltetrahydro-3′H-spiro[piperidine-4,2′-pyrrolo[2,1-b][1,3]oxazol]-3′-one], which EC50 is on record?
Answer: 601 nM

Question: How did the EC50 turn out when `N#Cc1ncc(N2CCC3(CC2)O[C@@H]2CC[C@@H](c4cc(F)cc(F)c4)N2C3=O)cn1` [Example 4.45, 5-[(5′S,7a′R)-5′-(3,5-difluorophenyl)-3′-oxotetrahydro-1H,3′H-spiro[piperidine-4,2′-pyrrolo[2,1-b] [1,3]oxazol]-1-yl]pyrimidine-2-carbonitrile] was run?
Answer: 250 nM

Question: How did the EC50 turn out when `O=C1N2[C@@H](CC[C@H]2c2ccccc2)OC12CCN(c1ccc(F)c3ncnn13)CC2` [Example 4.223, (5′S,7a′R)-1-(8-fluoro[1,2,4]triazolo[1,5-a]pyridin-5-yl)-5′-phenyltetrahydro-3′H-spiro[piperidine-4,2′-pyrrolo[2,1-b] [1,3]oxazol]-3′-one] was run?
Answer: < 25 nM

Question: For `N#Cc1cnc(N2CC3(C2)O[C@@H]2CC[C@@H](c4ccccc4F)N2C3=O)nc1` [Example 4.119, 2-((5′S,7a′R)-5′-(2-fluorophenyl)-3′-oxotetrahydro-3′H-spiro[azetidine-3,2′-pyrrolo[2,1-b]oxazol]-1-yl)pyrimidine-5-carbonitrile], which EC50 is on record?
Answer: 537 nM

Question: Which EC50 does the source give for `N#Cc1ccnc(N2CCC3(CC2)O[C@@H]2CC[C@@H](c4cccc(F)c4)N2C3=O)c1` [Example 4.54, 2-[(5′S,7a′R)-5′-(3-fluorophenyl)-3′-oxotetrahydro-1H,3′H-spiro[piperidine-4,2′-pyrrolo[2,1-b] [1,3]oxazol]-1-yl]pyridine-4-carbonitrile] here?
Answer: 31.1 nM

Question: Which EC50 does the source give for `N#Cc1ccc(C(=O)N2CCC3(CC2)O[C@@H]2CC[C@@H](c4cc(F)cc(F)c4)N2C3=O)cc1` [Example 5.21, 4-((5′S,7a′R)-5′-(3,5-difluorophenyl)-3′-oxo-tetrahydro-3′H-spiro [piperidine-4,2′-pyrrolo-[2,1-b]oxazole]-1-carbon-yl)benzonitrile] here?
Answer: 342 nM

Question: `COc1cncc(C(=O)N2CCC3(CC2)O[C@@H]2CC[C@@H](c4cc(F)cc(F)c4)N2C3=O)n1` [Example 6.41, (5′S,7a′R)-5′-(3,5-difluorophenyl)-1-(6-methoxypyrazine-2-carbonyl)tetrahydro-3′H-spiro[piperidine-4,2′-pyrrolo[2,1-b] [1,3]-oxazol]-3′-one] was tested. Which EC50 did it give?
Answer: 131 nM

Question: `O=C(c1ccccc1F)N1CCC2(CC1)O[C@@H]1CC[C@@H](c3ccccc3F)N1C2=O` [Example 1.16, (5′S,7a′R)-1-(2-fluorobenzoyl)-5′-(2-fluorophenyl)tetrahydro-3′H-spiro[piperidine-4,2′-pyrrolo[2,1-b]oxazol]-3′-one] was tested. Which EC50 did it give?
Answer: < 25 nM

Question: With `COC(=O)c1cnc(N2CCC3(CC2)O[C@@H]2CC[C@@H](c4ccccc4)N2C3=O)c(OC)c1` [Example 4.197, methyl 5-methoxy-6-[(5′S,7a′R)-3′-oxo-5′-phenyltetrahydro-1H,3′H-spiro[piperidine-4,2′-pyrrolo[2,1-b] [1,3]oxazol]-1-yl]pyridine-3-carboxylate] as the compound, how does the EC50 read?
Answer: 25.1 nM

Question: With `Cc1ocnc1C(=O)N1CCC2(CC1)O[C@@H]1CC[C@@H](c3cccc(F)c3)N1C2=O` [Example 6.128, (5′S,7a′R)-5′-(3-fluorophenyl)-1-(5-methyl-1,3-oxazole-4-carbonyl)tetrahydro-3′H-spiro[piperidine-4,2′-pyrrolo[2,1-b] [1,3]oxazol]-3′-one] as the compound, how does the EC50 read?
Answer: 42.7 nM
